Test results as given in BindingDB's records for doi:10.1021/jm00129a011 (Csiro Division of Chemicals and Polymers, 1989).
pIC50: −log10 of the molar value.

Target: Alpha-mannosidase (Canavalia ensiformis)
Assay: Inhibitory activity against Mannosidase in jack bean (Canavalia ensiformis)

Row | pIC50 | SMILES
1 | 6.30 | OC[C@@H](O)[C@H]1NC[C@@H](O)[C@H]1O
2 | 6.22 | C[C@@H](O)[C@H]1NC[C@@H](O)[C@H]1O
